Source: patent US20020115661A1, “Method for treating chronic obstructive pulmonary disease” (priority 2000, published 2002)

Columns and labels:
rat ETA receptors = molecular target: T1, rat ETA receptors (Rattus norvegicus, UniProt P26684); assay: [125I]ET-1 binding, membranes from rat A10 cells
T1 construct: endogenous in cells
T1 sequence (P26684 21-426): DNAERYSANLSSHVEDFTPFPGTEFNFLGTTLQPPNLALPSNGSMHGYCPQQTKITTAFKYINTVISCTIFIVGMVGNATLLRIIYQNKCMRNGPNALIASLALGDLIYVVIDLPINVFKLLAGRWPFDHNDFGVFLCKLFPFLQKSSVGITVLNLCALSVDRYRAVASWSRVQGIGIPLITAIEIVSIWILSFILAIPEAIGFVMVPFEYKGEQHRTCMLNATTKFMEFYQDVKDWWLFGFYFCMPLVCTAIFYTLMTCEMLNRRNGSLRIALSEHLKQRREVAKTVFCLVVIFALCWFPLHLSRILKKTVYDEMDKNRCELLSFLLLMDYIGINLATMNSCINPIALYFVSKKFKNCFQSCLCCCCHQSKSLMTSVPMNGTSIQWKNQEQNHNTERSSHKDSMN
Text: (§1) Relative binding activities are given below in TABLE 3.

[1] = test system: rat, dog, monkey, and human hepatocyte preparations; assay: Incubations with hepatocyte preparations; type: in vitro ADME; details: monkey, and human hepatocytes
Pharmacokinetics in dogs = type: in vivo; details: dog
[2] = Distribution, plasma protein binding and excretion; type: in vivo
[3] = molecular target: T2, human ETA receptor signaling (Homo sapiens, UniProt P25101); assay: ET-1 induced Ca2+ transient (Calcium Green-1) in human pulmonary artery smooth muscle cells; type: cell-based; details: hPASMC, ET-1 100 nM; read-out: IC50, inhibition of ET-1 Ca2+ response
T2 construct: endogenous in cells; host or cells: human pulmonary artery smooth muscle cells (hPASMC)
T2 sequence (P25101 21-427): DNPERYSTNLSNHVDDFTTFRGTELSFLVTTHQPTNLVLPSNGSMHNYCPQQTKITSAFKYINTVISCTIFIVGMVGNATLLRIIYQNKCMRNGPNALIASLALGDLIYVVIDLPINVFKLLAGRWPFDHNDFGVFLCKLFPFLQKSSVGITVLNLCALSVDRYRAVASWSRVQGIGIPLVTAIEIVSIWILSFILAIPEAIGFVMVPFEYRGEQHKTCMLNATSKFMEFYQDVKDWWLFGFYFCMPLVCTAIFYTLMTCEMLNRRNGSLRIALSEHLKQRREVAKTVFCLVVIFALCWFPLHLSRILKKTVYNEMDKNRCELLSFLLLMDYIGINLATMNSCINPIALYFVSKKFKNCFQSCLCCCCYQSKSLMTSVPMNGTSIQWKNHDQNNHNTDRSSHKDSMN

human ETA receptors = molecular target: T3, human ETA receptors (Homo sapiens, UniProt P25101); assay: Saturation binding of [125I]ET-1, Scatchard analysis (Ltk- cell membranes)
T3 construct: expressed in transfected cells; host or cells: Ltk- cells (mouse fibroblast, thymidine kinase deficient)
T3 sequence (P25101 21-427): T2 sequence (P25101 21-427)

rat ETB receptors = molecular target: T4, rat ETB receptors (Rattus norvegicus, UniProt P21451); assay: [125I]ET-3 binding, membranes from rat cerebellum
T4 construct: from tissue
T4 sequence (P21451 27-442): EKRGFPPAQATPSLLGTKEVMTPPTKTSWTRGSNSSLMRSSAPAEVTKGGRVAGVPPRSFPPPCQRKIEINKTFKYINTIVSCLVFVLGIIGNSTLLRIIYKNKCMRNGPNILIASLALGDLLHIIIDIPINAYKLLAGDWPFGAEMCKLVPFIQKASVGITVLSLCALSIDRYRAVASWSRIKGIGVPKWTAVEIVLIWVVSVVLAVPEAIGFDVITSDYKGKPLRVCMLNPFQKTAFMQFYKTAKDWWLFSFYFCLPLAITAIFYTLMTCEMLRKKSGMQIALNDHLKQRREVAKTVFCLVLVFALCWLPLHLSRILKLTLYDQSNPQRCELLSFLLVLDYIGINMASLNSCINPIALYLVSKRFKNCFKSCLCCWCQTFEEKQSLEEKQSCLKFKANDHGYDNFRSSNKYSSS
Text: as §1

dog ETB receptors = molecular target: T5, dog ETB receptors (Canis lupus familiaris, UniProt P56497); assay: [125I]ET-3 binding, membranes from dog cerebellum
T5 construct: from tissue
T5 sequence (P56497 27-442): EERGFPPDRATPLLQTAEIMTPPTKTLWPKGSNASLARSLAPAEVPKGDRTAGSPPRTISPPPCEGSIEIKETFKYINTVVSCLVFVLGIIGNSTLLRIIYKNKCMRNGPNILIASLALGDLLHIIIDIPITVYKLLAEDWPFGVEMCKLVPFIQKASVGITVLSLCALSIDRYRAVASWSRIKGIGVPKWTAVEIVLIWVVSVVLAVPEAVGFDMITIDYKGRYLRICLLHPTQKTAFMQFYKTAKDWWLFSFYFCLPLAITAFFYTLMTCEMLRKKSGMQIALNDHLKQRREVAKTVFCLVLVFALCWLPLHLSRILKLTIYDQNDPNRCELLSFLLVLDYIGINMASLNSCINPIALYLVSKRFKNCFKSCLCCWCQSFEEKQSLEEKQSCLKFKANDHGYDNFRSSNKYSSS
Text: as §1

[4] = PO bioavailability in monkeys; details: monkey, in vivo
[5] = test system: chronic hypoxia-induced pulmonary hypertension and RV hypertrophy; assay: Pulmonary hypertension and right ventricular hypertrophy in rats exposed to chronic hypoxia; type: in vivo, rat; details: for average MPAP: hypoxic rats, days 10-20 of hypoxia
Text: Rats were exposed to hypoxia for an additional 10 days during treatment (20 days total). A separate group of age-matched rats treated with diet alone (20 days) and no exposure to hypoxia served as normoxic controls. Blood samples, pulmonary artery pressures, and cardiac right and left ventricles were collected at the end of the 20-day protocol.
Rats exposed to 20 days of hypoxia had MPAP of 43±2 mm Hg which averaged 30 mm Hg higher than normal (13±0 mm Hg).
Heparinized plasma samples were collected approximately 1 hour before MPAP was measured.
The right ventricular hypertrophic response to hypoxia was estimated by comparing the ratio of right ventricular free wall weight to left ventricle plus septum weight (RV/LV+S) between hypoxic and normoxic control groups. Using this index, rats exposed to hypoxia had right ventricular free walls that were more than twice control (0.57±0.03 versus 0.24±0.1).

In the case of `CCc1cc(C2=C(C(=O)[O-])N(c3ccccc3C(F)(F)F)S(=O)(=O)c3ccccc32)cc2c1OCO2.[K+]` [CI-1034, 4-(7-Ethyl-1,3-benzodioxol-5-yl)-2-[2-(trifluoromethyl)phenyl]-2H-1 ,2-benzothiazine-3-carboxylic acid 1,1-dioxide monopotassium salt], the IC50 (rat ETA receptors) is reported as 3.3 nM, the “metabolic profiles across species” value [1] is reported as “qualitatively similar metabolic profiles” and the bioavailability (Pharmacokinetics in dogs; in vivo, po, dogs) is reported as ~100%. The “increase of plasma concentrations with dose” value (Pharmacokinetics in dogs; up to 100 mg/kg) was “approximately proportional to dose”, the “tissue distribution of radioequivalents” value ([2]; highest concentrations in liver and blood) was “not widely distributed” and the plasma protein binding ([2]; in vivo) was “highly bound”. For the same compound, the IC50 [3] was 0.22 nM, the Ki (human ETA receptors; Scatchard analysis, read-out: Ki (inhibitor constant of unlabeled antagonist)) was 0.51 nM and the “effect on Bmax (maximal [125I]ET-1 binding)” value (human ETA receptors; saturation binding) was “without significantly affecting”. For the same compound, the “effect on apparent Kd of [125I]ET-1 binding” value (human ETA receptors; saturation binding) was “reduced”, the IC50 (rat ETB receptors) was 230 nM and the IC50 (dog ETB receptors) was 329 nM. The bioavailability [4] was ~10%, the EC50 ([5]; Rattus norvegicus, simple Emax model, chronic hypoxia, read-out: plasma concentration predicted to produce half-maximal effect) was 0.32 ± 0.25 µg/mL and the “average MPAP” value ([5]; 25 mg/kg/day in diet) was 37±2 mm Hg. The “average MPAP” value ([5]; 50 mg/kg/day in diet) was 33±0 mm Hg, the “average MPAP” value ([5]; 100 mg/kg/day in diet) was 29±2 mm Hg and the “predicted maximal antihypertensive effect” value ([5]; simple Emax model, chronic hypoxia) was 60%±18%.
